Tests used:
Experiment in all cases: Kinase selectivity panel
Type in all cases: biochemical
Conditions in all cases: read-out: Inhibition(%) @ 1 µM RK-019
JNK3(h) = biological target: T1, JNK3(h) (Homo sapiens, UniProt P53779)
T1 construct: purchased Eurofins Discovery Services (KinaseProfiler)
In short: (§1)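 Selectivity profiling used one concentration (1 µM) in an ATP-site competition binding assay over 422 recombinant human kinases; data given as inhibition ratio.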

PRKG2(h) = biological target: T2, PRKG2(h) (Homo sapiens, UniProt Q13237)
T2 construct: purchased Eurofins Discovery Services (KinaseProfiler)
In short: as §1

TSSK3(h) = biological target: T3, TSSK3(h) (Homo sapiens, UniProt Q96PN8)
T3 construct: purchased Eurofins Discovery Services (KinaseProfiler)
In short: as §1

Flt3(h) = biological target: T4, Flt3(h) (Homo sapiens, UniProt P36888)
T4 construct: purchased Eurofins Discovery Services (KinaseProfiler)
In short: as §1

B-Raf(h) = biological target: T5, B-Raf(h) (Homo sapiens, UniProt P15056)
T5 construct: purchased Eurofins Discovery Services (KinaseProfiler)
In short: as §1

Aurora-A(h) = biological target: T6, Aurora-A(h) (Homo sapiens, UniProt O14965)
T6 construct: purchased Eurofins Discovery Services (KinaseProfiler)
In short: as §1

ROCK-II(h) = biological target: T7, ROCK-II(h) (Homo sapiens, UniProt O75116)
T7 construct: purchased Eurofins Discovery Services (KinaseProfiler)
In short: as §1

CHK2(R145W)(h) = biological target: T8, CHK2(R145W)(h) (Homo sapiens, UniProt O96017, R145W)
T8 construct: purchased Eurofins Discovery Services (KinaseProfiler)
In short: as §1

Pim-3(h) = biological target: T9, Pim-3(h) (Homo sapiens, UniProt Q86V86)
T9 construct: purchased Eurofins Discovery Services (KinaseProfiler)
In short: as §1

FGFR2(N549H)(h) = biological target: T10, FGFR2(N549H)(h) (Homo sapiens, UniProt P21802, N549H)
T10 construct: purchased Eurofins Discovery Services (KinaseProfiler)
In short: as §1

MAP4K5(h) = biological target: T11, MAP4K5(h) (Homo sapiens, UniProt Q9Y4K4)
T11 construct: purchased Eurofins Discovery Services (KinaseProfiler)
In short: as §1

GSK3β(h) = biological target: T12, GSK3β(h) (Homo sapiens, UniProt P49841)
T12 construct: purchased Eurofins Discovery Services (KinaseProfiler)
In short: as §1

Haspin(h) = biological target: T13, Haspin(h) (Homo sapiens, UniProt Q8TF76)
T13 construct: purchased Eurofins Discovery Services (KinaseProfiler)
In short: as §1

CDK9/cyclin T1(h) = biological target: T14, CDK9/cyclin T1(h) (Homo sapiens, UniProt P50750)
T14 construct: purchased Eurofins Discovery Services (KinaseProfiler)
In short: as §1

HRI(h) = biological target: T15, HRI(h) (Homo sapiens, UniProt Q9BQI3)
T15 construct: purchased Eurofins Discovery Services (KinaseProfiler)
In short: as §1

NEK1(h) = biological target: T16, NEK1(h) (Homo sapiens, UniProt Q96PY6)
T16 construct: purchased Eurofins Discovery Services (KinaseProfiler)
In short: as §1

PI3KC2a(h) = biological target: T17, PI3KC2a(h) (Homo sapiens, UniProt O00443)
T17 construct: purchased Eurofins Discovery Services (KinaseProfiler)
In short: as §1

CDKL3(h) = biological target: T18, CDKL3(h) (Homo sapiens, UniProt Q8IVW4)
T18 construct: purchased Eurofins Discovery Services (KinaseProfiler)
In short: as §1

PKCα(h) = biological target: T19, PKCα(h) (Homo sapiens, UniProt P17252)
T19 construct: purchased Eurofins Discovery Services (KinaseProfiler)
In short: as §1

SAPK3(h) = biological target: T20, SAPK3(h) (Homo sapiens, UniProt P53778)
T20 construct: purchased Eurofins Discovery Services (KinaseProfiler)
In short: as §1

CDK14/cyclinY(h) = biological target: T21, CDK14/cyclinY(h) (Homo sapiens, UniProt O94921)
T21 construct: purchased Eurofins Discovery Services (KinaseProfiler)
In short: as §1

Ret (V804L)(h) = biological target: T22, Ret (V804L)(h) (Homo sapiens, UniProt P07949, V804L)
T22 construct: purchased Eurofins Discovery Services (KinaseProfiler)
In short: as §1

PrKX(h) = biological target: T23, PrKX(h) (Homo sapiens, UniProt P51817)
T23 construct: purchased Eurofins Discovery Services (KinaseProfiler)
In short: as §1

ALK2(h) = biological target: T24, ALK2(h) (Homo sapiens, UniProt Q04771)
T24 construct: purchased Eurofins Discovery Services (KinaseProfiler)
In short: as §1

ALK4(h) = biological target: T25, ALK4(h) (Homo sapiens, UniProt P36896)
T25 construct: purchased Eurofins Discovery Services (KinaseProfiler)
In short: as §1

ULK3(h) = biological target: T26, ULK3(h) (Homo sapiens, UniProt Q6PHR2)
T26 construct: purchased Eurofins Discovery Services (KinaseProfiler)
In short: as §1

CDK2/cyclinA(h) = biological target: T27, CDK2/cyclinA(h) (Homo sapiens, UniProt P24941)
T27 construct: purchased Eurofins Discovery Services (KinaseProfiler)
In short: as §1

MLK2(h) = biological target: T28, MLK2(h) (Homo sapiens, UniProt Q02779)
T28 construct: purchased Eurofins Discovery Services (KinaseProfiler)
In short: as §1

CK2α1(h) = biological target: T29, CK2α1(h) (Homo sapiens, UniProt P68400)
T29 construct: purchased Eurofins Discovery Services (KinaseProfiler)
In short: as §1

Rsk4(h) = biological target: T30, Rsk4(h) (Homo sapiens, UniProt Q9UK32)
T30 construct: purchased Eurofins Discovery Services (KinaseProfiler)
In short: as §1

PKCη(h) = biological target: T31, PKCη(h) (Homo sapiens, UniProt P24723)
T31 construct: purchased Eurofins Discovery Services (KinaseProfiler)
In short: as §1

STK32B(h) = biological target: T32, STK32B(h) (Homo sapiens, UniProt Q9NY57)
T32 construct: purchased Eurofins Discovery Services (KinaseProfiler)
In short: as §1

[1] = biological target: T33, PI3 Kinase (p110a(H1047R)/p85a)(m) (Mus musculus, UniProt P42337, H1047R)
T33 construct: purchased Eurofins Discovery Services (KinaseProfiler)

BrSK2(h) = biological target: T34, BrSK2(h) (Homo sapiens, UniProt Q8IWQ3)
T34 construct: purchased Eurofins Discovery Services (KinaseProfiler)
In short: as §1

Src(1-530)(h) = biological target: T35, Src(1-530)(h) (Homo sapiens, UniProt P12931)
T35 construct: purchased Eurofins Discovery Services (KinaseProfiler)
In short: as §1

EphA5(h) = biological target: T36, EphA5(h) (Homo sapiens, UniProt P54756)
T36 construct: purchased Eurofins Discovery Services (KinaseProfiler)
In short: as §1

WNK2(h) = biological target: T37, WNK2(h) (Homo sapiens, UniProt Q9Y3S1)
T37 construct: purchased Eurofins Discovery Services (KinaseProfiler)
In short: as §1

T33 sequence (P42337 whole entry H1047R): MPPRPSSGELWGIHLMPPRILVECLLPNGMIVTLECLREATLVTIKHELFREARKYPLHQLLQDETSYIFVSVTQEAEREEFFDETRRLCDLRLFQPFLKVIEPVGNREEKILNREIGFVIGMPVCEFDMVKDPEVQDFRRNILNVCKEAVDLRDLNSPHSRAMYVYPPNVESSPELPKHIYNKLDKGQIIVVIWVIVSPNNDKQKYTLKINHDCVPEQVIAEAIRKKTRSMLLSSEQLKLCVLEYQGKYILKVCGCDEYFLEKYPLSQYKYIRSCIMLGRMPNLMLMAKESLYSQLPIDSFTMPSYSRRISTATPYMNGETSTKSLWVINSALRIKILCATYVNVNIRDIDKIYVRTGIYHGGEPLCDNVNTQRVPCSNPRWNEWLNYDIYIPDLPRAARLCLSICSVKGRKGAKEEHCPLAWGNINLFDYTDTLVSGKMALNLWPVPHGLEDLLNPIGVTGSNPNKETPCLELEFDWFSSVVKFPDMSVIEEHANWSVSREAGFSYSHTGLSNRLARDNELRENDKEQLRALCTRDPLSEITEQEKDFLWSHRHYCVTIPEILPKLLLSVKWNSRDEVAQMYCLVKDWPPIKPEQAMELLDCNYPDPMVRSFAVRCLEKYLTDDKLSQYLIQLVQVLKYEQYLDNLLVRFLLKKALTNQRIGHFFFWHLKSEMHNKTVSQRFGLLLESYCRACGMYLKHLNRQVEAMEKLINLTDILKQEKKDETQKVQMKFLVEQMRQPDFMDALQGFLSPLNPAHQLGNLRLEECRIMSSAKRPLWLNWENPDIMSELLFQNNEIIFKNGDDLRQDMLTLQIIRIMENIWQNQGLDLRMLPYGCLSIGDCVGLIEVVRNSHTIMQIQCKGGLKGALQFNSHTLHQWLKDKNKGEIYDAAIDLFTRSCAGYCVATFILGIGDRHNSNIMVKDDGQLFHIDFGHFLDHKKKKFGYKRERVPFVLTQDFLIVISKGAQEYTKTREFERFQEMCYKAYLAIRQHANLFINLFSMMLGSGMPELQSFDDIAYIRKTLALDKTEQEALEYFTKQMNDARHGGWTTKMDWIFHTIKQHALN
T33 sequence (P26450 2-724 partner): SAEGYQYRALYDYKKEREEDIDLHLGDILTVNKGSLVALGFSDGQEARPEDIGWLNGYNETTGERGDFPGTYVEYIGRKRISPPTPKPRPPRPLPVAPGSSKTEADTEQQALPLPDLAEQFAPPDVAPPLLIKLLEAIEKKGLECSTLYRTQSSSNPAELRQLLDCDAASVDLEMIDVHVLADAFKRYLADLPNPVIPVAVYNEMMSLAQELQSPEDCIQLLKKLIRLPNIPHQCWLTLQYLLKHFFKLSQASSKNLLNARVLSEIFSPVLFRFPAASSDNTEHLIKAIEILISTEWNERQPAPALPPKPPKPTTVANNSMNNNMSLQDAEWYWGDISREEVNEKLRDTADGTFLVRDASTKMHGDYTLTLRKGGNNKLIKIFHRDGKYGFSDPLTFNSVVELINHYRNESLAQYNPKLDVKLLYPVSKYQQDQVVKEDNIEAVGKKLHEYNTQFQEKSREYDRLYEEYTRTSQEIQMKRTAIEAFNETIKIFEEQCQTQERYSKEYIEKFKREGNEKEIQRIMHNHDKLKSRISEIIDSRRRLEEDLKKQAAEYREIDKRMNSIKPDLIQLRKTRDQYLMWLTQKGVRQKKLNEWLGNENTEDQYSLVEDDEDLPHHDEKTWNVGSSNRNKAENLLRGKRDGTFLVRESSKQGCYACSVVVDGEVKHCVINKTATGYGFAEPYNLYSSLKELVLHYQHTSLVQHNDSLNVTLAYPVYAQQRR
T36 sequence (P54756 25-1037): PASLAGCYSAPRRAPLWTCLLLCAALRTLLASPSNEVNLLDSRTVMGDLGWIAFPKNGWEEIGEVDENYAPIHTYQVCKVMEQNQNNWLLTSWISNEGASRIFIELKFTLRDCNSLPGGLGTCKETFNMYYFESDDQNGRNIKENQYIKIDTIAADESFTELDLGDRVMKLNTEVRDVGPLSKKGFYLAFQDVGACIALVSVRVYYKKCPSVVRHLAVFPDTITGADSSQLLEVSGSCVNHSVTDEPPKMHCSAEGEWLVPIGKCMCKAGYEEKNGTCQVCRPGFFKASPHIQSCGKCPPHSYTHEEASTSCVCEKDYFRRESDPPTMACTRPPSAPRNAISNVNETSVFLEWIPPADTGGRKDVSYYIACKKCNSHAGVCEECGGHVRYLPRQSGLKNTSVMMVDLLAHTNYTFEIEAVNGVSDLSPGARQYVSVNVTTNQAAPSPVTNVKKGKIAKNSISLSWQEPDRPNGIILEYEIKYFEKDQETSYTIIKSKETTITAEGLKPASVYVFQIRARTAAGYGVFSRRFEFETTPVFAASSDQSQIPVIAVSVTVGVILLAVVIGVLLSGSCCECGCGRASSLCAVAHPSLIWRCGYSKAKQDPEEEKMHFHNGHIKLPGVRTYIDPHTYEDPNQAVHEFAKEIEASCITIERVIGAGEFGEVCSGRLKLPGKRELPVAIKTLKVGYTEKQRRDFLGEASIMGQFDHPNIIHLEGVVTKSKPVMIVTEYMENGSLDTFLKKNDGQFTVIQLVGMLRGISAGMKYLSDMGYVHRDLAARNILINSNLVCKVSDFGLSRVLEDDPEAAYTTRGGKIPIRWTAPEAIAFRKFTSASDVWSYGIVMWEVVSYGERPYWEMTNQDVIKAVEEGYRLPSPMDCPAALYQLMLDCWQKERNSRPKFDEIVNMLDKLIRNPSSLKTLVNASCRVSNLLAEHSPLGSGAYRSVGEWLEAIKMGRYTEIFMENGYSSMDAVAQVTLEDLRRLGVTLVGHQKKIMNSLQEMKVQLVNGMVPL
T4 sequence (P36888 27-993): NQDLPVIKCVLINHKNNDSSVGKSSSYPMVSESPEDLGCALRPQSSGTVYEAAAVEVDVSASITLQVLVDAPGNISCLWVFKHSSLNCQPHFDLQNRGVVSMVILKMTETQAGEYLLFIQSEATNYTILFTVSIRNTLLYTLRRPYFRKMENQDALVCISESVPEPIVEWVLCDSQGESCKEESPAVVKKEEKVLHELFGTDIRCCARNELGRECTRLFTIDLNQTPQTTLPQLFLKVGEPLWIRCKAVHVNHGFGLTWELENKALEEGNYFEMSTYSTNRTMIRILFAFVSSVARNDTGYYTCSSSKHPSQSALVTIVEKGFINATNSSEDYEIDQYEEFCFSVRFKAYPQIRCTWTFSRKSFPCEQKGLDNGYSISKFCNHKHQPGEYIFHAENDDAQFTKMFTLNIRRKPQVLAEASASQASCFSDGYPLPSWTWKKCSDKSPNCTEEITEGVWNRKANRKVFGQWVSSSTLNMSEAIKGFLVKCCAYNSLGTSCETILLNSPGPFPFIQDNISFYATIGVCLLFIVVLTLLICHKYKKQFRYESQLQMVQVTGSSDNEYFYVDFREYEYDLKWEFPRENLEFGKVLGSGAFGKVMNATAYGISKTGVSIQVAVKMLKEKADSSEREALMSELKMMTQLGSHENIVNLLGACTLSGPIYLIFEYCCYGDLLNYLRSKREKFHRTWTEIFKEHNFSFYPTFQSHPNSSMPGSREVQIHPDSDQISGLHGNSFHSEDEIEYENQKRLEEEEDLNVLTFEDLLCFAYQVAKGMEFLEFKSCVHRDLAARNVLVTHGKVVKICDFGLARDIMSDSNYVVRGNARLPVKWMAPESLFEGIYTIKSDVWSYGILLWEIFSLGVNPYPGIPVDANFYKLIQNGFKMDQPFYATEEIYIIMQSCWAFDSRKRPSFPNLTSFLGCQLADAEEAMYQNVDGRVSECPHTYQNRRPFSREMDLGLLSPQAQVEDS
T21 sequence (O94921 whole entry): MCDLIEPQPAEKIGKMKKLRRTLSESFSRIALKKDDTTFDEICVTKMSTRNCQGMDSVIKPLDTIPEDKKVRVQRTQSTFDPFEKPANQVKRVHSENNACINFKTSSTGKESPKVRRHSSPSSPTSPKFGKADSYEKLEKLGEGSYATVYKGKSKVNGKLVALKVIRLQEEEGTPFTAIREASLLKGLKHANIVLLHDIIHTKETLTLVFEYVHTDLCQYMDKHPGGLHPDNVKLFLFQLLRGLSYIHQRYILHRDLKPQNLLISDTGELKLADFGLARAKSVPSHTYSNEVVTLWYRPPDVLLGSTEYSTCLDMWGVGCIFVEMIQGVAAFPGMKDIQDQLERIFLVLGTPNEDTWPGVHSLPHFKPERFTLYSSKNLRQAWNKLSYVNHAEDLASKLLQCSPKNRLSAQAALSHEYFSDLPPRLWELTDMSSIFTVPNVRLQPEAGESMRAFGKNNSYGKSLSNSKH
T21 sequence (Q8ND76 whole entry partner): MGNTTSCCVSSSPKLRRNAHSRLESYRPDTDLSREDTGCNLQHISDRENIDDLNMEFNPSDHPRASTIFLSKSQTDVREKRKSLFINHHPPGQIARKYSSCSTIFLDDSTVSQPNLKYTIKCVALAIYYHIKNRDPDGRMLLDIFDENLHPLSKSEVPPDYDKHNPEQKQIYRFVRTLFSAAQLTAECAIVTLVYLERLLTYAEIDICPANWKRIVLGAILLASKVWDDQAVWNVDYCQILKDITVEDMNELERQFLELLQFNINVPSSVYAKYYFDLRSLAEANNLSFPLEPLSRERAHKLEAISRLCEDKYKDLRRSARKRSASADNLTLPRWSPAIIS

SMILES: COc1cc(OC)cc(N(CCN[C@H](C)CO)c2ccc3ncc(-c4cnn(C)c4)c(=O)n3c2)c1 [RK-019, (R)-7-((3,5-dimethoxyphenyl) (2-((1-hydroxypropan-2-yl)amino)ethyl)amino)-3-(1-methyl-1H-pyrazol-4-yl)-4H-pyrido [1,2-a]pyrimidin-4-one]
- activity at 1 µM (JNK3(h)): 91%
- activity at 1 µM (PRKG2(h)): 100%
- activity at 1 µM (TSSK3(h)): 102%
- activity at 1 µM (Flt3(h)): 123%
- activity at 1 µM (B-Raf(h)): 124%
- activity at 1 µM (Aurora-A(h)): 133%
- activity at 1 µM (ROCK-II(h)): 105%
- activity at 1 µM (CHK2(R145W)(h)): 100%
- activity at 1 µM (Pim-3(h)): 114%
- activity at 1 µM (FGFR2(N549H)(h)): -1%
- activity at 1 µM (MAP4K5(h)): 103%
- activity at 1 µM (GSK3β(h)): 96%
- activity at 1 µM (Haspin(h)): 105%
- activity at 1 µM (CDK9/cyclin T1(h)): 99%
- activity at 1 µM (HRI(h)): 100%
- activity at 1 µM (NEK1(h)): 52%
- activity at 1 µM (PI3KC2a(h)): 104%
- activity at 1 µM (CDKL3(h)): 102%
- activity at 1 µM (PKCα(h)): 97%
- activity at 1 µM (SAPK3(h)): 99%
- activity at 1 µM (CDK14/cyclinY(h)): 91%
- activity at 1 µM (Ret (V804L)(h)): 92%
- activity at 1 µM (PrKX(h)): 98%
- activity at 1 µM (ALK2(h)): 90%
- activity at 1 µM (ALK4(h)): 91%
- activity at 1 µM (ULK3(h)): 91%
- activity at 1 µM (CDK2/cyclinA(h)): 115%
- activity at 1 µM (MLK2(h)): 103%
- activity at 1 µM (CK2α1(h)): 95%
- activity at 1 µM (Rsk4(h)): 146%
- activity at 1 µM (PKCη(h)): 108%
- activity at 1 µM (STK32B(h)): 123%
- activity at 1 µM [1]: 100%
- activity at 1 µM (BrSK2(h)): 96%
- activity at 1 µM (Src(1-530)(h)): 45%
- activity at 1 µM (EphA5(h)): 45%
- activity at 1 µM (WNK2(h)): 103%

— paper PMC9532703, “A novel small molecule RK-019 inhibits FGFR2-amplification gastric cancer cell proliferation and induces apoptosis in vitro and in vivo” (Frontiers in Pharmacology, 2022)
